What is called MIC is the lowest concentration found to suppress growth. Lower therefore signals a more susceptible organism. The term MBC denotes the smallest concentration meeting the test's criterion for killing. Low readings indicate greater bactericidal potency, high ones weaker bactericidal potency.

Ends that are not written are not given here.

For test [1], the system named is L. salivarius ATCC 29602. In words: Bactericidal assay (log reduction in viable counts). Format: cell-based, Lactobacillus salivarius. From the text:
(§1) Strains used in Examples 3-6 included ATCC and laboratory strains of different oral bacteria. These included: Actinomyces naeslundii strain T14V-J1, Actinomyces israelii ATCC 10049, Streptococcus mutans strains LT 11 and ATCC 25175, Streptococcus sobrinus ATCC 33478, Streptococcus gordonii strains DL1 and ATCC 51656, Streptococcus sanguis strains SK36 and ATCC 10556, Streptococcus salivarius ATCC 9222, Streptococcus oralis strains 34 and ATCC 35037, Lactobacillus salivarius ATCC 29602, Lactobacillus acidophilus ATCC 4357, and Actinobacillus actinomycetemcomitans ATCC 43718. S. mutans strain LT 11 was kindly provided by Lin Tao, University of Illinois at Chicago, Ill. S. gordonii DLI, S. sanguis SK36, and S. oralis 34 were provided by John Cisar, National Institute of Dental and Craniofacial Research, NIH, Bethesda, Md.
(§2) The bactericidal assay was performed according to procedures described by Miyasaki et al. (1997, 1998) with a slight modification. […] Susceptibility was determined by examining the log reduction in viability counts of organisms that had been exposed to different concentrations of KSL. […] Bactericidal activity was also expressed as the 99% effective dose (ED99), which is the concentration of the antimicrobial decapeptide at which there is a 2-log or more reduction in c.f.u. […]
(§3) In addition to the determinations of MICs and MBCs of KSL, log reductions in viable counts of selected oral bacteria caused by KSL were also determined. […] With the exception of Actinobacillus actinomycetemcomitans, for which the assays were performed in 0.01% BHI, bactericidal action of KSL was determined in isotonic HBSS after incubation with the targeted bacteria for 1 h at 37° C. KSL at 6.25 μg ml^−1, which was determined to be the 99% effective dose (ED99), caused more than 2 log reductions in viable counts of the organisms tested, which included L. salivarius ATCC 29602 (FIG. 3a), S. mutans ATCC 25175^T (FIG. 3b), S. gordonii ATCC 51656 (FIG. 3c), and Actinobacillus actinomycetemcomitans ATCC 43718 (FIG. 3d).

For test [2], the system named is S. gordonii DL1. The test is described as follows: In vitro susceptibility (broth microdilution MIC, MBC by spiral-plating). Format: cell-based, Streptococcus gordonii. The conditions noted are these: 24-48 h.
Description: as §1
(§4) Todd-Hewitt broth (THB), brain heart infusion (BHI) broth, Todd-Hewitt agar (THA), trypticase soy agar (TSA), lactobacilli MRS (MRS) broth, Actinomyces broth and Mueller-Hinton broth (MHB) were purchased from Becton Dickinson. Blood agar plates (BAP) were prepared by supplementing TSA with 5% sheep blood (PML Microbiologicals). All cultures, except for Actinobacillus actinomycetemcomitans, S. mitis and Actinomyces israelii, were grown at 37° C. in room air. Actinobacillus actinomycetemcomitans cultures were grown on BAP or in MHB supplemented with 15 μg haemin ml^−1 (Sigma), 15 μg β-nicotinamide adenine dinucleotide (NAD) ml^−1 (Sigma) and 5% yeast extract (Becton Dickinson) at 37° C. in 5% CO2. S. mitis was grown on BAP or in BHI broth at 37° C. in 5% CO2. Actinomyces israeilli was grown anaerobically in an anaerobic chamber (Coy Laboratory Products) in a 5% CO2/10% H2/85% N2 atmosphere.
(§5) MICs were determined as described by Fuchs et al. (1998) with a slight modification. Procedures were based on the National Committee for Clinical Laboratory Standards broth microdilution method. MHB was used as the main assay medium for most of the tested organisms. Freshly grown cultures at exponential phase were used as the inoculum. Bacteria were centrifuged at 4000 r.p.m. for 15 min at 4° C., suspended in 2× concentrated medium and adjusted to 4×106 c.f.u ml−1 in 2× concentrated medium. Aqueous peptide solution (100 μl) was added to each well of a 96-well, flat-bottomed plate (Becton Dickinson). […] The MIC was defined as the lowest concentration of the peptide that prevented visible turbidity, as measured at 600 nm by using an ELISA reader (Titertek Multiskan MCC/340). […] Minimum bactericidal concentrations (MBCs) were determined by spiral-plating (Spiral Plater Autoplate 4000; Spiral Biotech) 50 μl from each clear well (≧MIC) onto BAP.
(In general: Dilution methods test growth across graded concentrations, often in twofold steps.)

Test [3] relates to S. gordonii ATCC 51656. The description is as above. Format: cell-based, Streptococcus gordonii. The conditions noted are these: 24-48 h.
Description: as §1, §4, §5

Test [4] has as its system Actinomyces naeslundii T14V-J1. The description is as above. Format: cell-based. To be noted: 24-48 h.
Description: as §1, §4
MICs were determined as described by Fuchs et al. (1998) with a slight modification. Procedures were based on the National Committee for Clinical Laboratory Standards broth microdilution method. MHB was used as the main assay medium for most of the tested organisms. Freshly grown cultures at exponential phase were used as the inoculum. Bacteria were centrifuged at 4000 r.p.m. for 15 min at 4° C., suspended in 2× concentrated medium and adjusted to 4×106 c.f.u ml−1 in 2× concentrated medium. Aqueous peptide solution (100 μl) was added to each well of a 96-well, flat-bottomed plate (Becton Dickinson). The peptide solution was serially diluted (twofold) with sterile distilled water in the wells, with final peptide concentrations ranging from 3.13 to 200 μg ml−1. After dispensing 100 μl aliquots of bacterial suspension into the wells, the 96-well plates were incubated at 37° C. for 24-48 h in room air, CO2 or anaerobically. The MIC was defined as the lowest concentration of the peptide that prevented visible turbidity, as measured at 600 nm by using an ELISA reader (Titertek Multiskan MCC/340). […] Minimum bactericidal concentrations (MBCs) were determined by spiral-plating (Spiral Plater Autoplate 4000; Spiral Biotech) 50 μl from each clear well (≧MIC) onto BAP.

Test [5] has as its system S. gordonii ATCC 51656. In words: Bactericidal assay (log reduction in viable counts). In kind it is cell-based, Streptococcus gordonii.
Description: as §1, §2, §3

Test [6] deals with L. acidophilus ATCC 4357. In words: In vitro susceptibility (broth microdilution MIC, MBC by spiral-plating). In kind it is cell-based, Lactobacillus acidophilus.
Description: as §1
as §4, with “Actinomyces israeilli was grown anaerobically in an anaerobic chamber (Coy Laboratory Products) in a 5% CO2/10% H2/85% N2 atmosphere.” left out
MICs were determined as described by Fuchs et al. (1998) with a slight modification. […] The MIC was defined as the lowest concentration of the peptide that prevented visible turbidity, as measured at 600 nm by using an ELISA reader (Titertek Multiskan MCC/340). […] Minimum bactericidal concentrations (MBCs) were determined by spiral-plating (Spiral Plater Autoplate 4000; Spiral Biotech) 50 μl from each clear well (≧MIC) onto BAP.

In test [7] the test system is S. sanguis ATCC 10556. The test is described as above. In kind it is cell-based, Streptococcus sanguis. The conditions noted are these: 24-48 h.
Description: as §1, §4, §5

Test [8] concerns S. sanguis SK36. The test is described as above. The conditions noted are these: 24-48 h. Format: cell-based, Streptococcus sanguis.
Description: as §1, §4, §5

[9] abbreviates: MHB, 4 × 10^6 cells ml^−1, 37° C.

For “KKVVFKVKFK-NH2 [KSL, lys-lys-val-val-phe-lys-val-lys-phe-lys]”, the “log reduction in viable counts” value is “more than 2 log” in test [1] (6.25 μg ml^−1, HBSS, FIG. 3a) and “more than 2 log” in test [5] (6.25 μg ml^−1, HBSS, FIG. 3c). Further, the reduction in viability in test [1] (concentrations of <10 μg ml^−1) and in test [5] (concentrations of <10 μg ml^−1) was over 3 logs throughout. Further, the “ED99 (99% effective dose)” value is 6.25 µg/mL in test [1] (isotonic HBSS, 1 h at 37° C.) and 6.25 µg/mL in test [5] (isotonic HBSS, 1 h at 37° C.). Moreover, the minimum inhibitory concentration (MIC) in test [2] (setting [9]) came out at 50 µg/mL; in test [3] (setting [9]) it was 50 µg/mL; in test [4] (MHB or modified broth, 4 × 10^6 cells ml^−1, 37° C.) it was 3.13 µg/mL; in test [6] (10% MRS, 4 × 10^6 cells ml^−1, 37° C., 24-48 h), 3.13 µg/mL; in test [7] (setting [9]), 25 µg/mL; in test [8] (setting [9]), 25 µg/mL. Besides, the MBC worked out at 100 µg/mL in test [2] (clear MIC wells plated on BAP); 100 µg/mL in test [3] (clear MIC wells plated on BAP); 12.5 µg/mL in test [4] (clear MIC wells plated on BAP); 12.5 µg/mL in test [6] (clear MIC wells plated on BAP, 24-48 h); 100 µg/mL in test [7] (clear MIC wells plated on BAP); 50 µg/mL in test [8] (clear MIC wells plated on BAP). Also, the “concentration inhibiting growth effectively” value in test [6] was under 25 µg/mL.

The values above are taken from patent publication US7494980B2, “Antimicrobial peptide and methods of use thereof” (The United States of America as represented by the …, priority 2003, dated 2009).
